Measurements from ChEMBL document CHEMBL3390836, “Mannich- and LedererManasse-based analogues of the natural product S-(+)-curcuphenol as cancer proliferation and migration inhibitors” (Medchemcomm, 2012).
pIC50: −log10 of the molar value.

How the values were obtained:
T47D = assay: Cytotoxicity against human T47D cells assessed as cell growth at 10 uM after 48 hrs by SRB assay relative to control; type: functional; details: read-out: Activity
MDA-MB-231 [1] = assay: Cytotoxicity against human MDA-MB-231 cells assessed as cell growth at 10 uM after 48 hrs by SRB assay relative to control; type: functional; details: MDA-MB-231, 48 h, read-out: Activity
[2] = Cytotoxicity against human PC3 cells assessed as cell growth at 10 uM after 48 hrs by SRB assay relative to control; type: functional; details: PC-3, 48 h, read-out: Activity
MCF7 = assay: Cytotoxicity against human MCF7 cells assessed as cell growth at 10 uM after 48 hrs by SRB assay relative to control; type: functional; details: MCF7, 48 h, read-out: Activity
TK-10 = assay: Cytotoxicity against human TK10 cells assessed as cell growth at 10 uM after 48 hrs by SRB assay relative to control; type: functional; details: TK-10, 48 h, read-out: Activity
SN12C = assay: Cytotoxicity against human SN12C cells assessed as cell growth at 10 uM after 48 hrs by SRB assay relative to control; type: functional; details: read-out: Activity
ACHN = assay: Cytotoxicity against human ACHN cells assessed as cell growth at 10 uM after 48 hrs by SRB assay relative to control; type: functional; details: read-out: Activity
786-0 = assay: Cytotoxicity against human 786-0 cells assessed as cell growth at 10 uM after 48 hrs by SRB assay relative to control; type: functional; details: 786-0, 48 h, read-out: Activity
MDA-MB-231 [3] = assay: Cytotoxicity against human MDA-MB-231 cells assessed as growth inhibition after 24 hrs by MTT assay; type: cell-based; details: MDA-MB-231, 24 h
[4] = Cytotoxicity against human OVCAR3 cells assessed as cell growth at 10 uM after 48 hrs by SRB assay relative to control; type: functional; details: OVCAR-3, 48 h, read-out: Activity
IGROV-1 = assay: Cytotoxicity against human IGROV1 cells assessed as cell growth at 10 uM after 48 hrs by SRB assay relative to control; type: functional; details: IGROV-1, 48 h, read-out: Activity
[5] = Cytotoxicity against human UACC62 cells assessed as cell growth at 10 uM after 48 hrs by SRB assay relative to control; type: functional; details: UACC-62, 48 h, read-out: Activity
[6] = Cytotoxicity against human UACC257 cells assessed as cell growth at 10 uM after 48 hrs by SRB assay relative to control; type: functional; details: UACC-257, 48 h, read-out: Activity
SK-MEL-28 = assay: Cytotoxicity against human SK-MEL-28 cells assessed as cell growth at 10 uM after 48 hrs by SRB assay relative to control; type: functional; details: SK-MEL-28, 48 h, read-out: Activity
MDA-MB-435 = assay: Cytotoxicity against human MDA-MB-435 cells assessed as cell growth at 10 uM after 48 hrs by SRB assay relative to control; type: functional; details: MDA-MB-435, 48 h, read-out: Activity
M14 = assay: Cytotoxicity against human M14 cells assessed as cell growth at 10 uM after 48 hrs by SRB assay relative to control; type: functional; details: M14, 48 h, read-out: Activity
LOX IMVI = assay: Cytotoxicity against human LOXIMVI cells assessed as cell growth at 10 uM after 48 hrs by SRB assay relative to control; type: functional; details: read-out: Activity
SNB-75 = assay: Cytotoxicity against human SNB75 cells assessed as cell growth at 10 uM after 48 hrs by SRB assay relative to control; type: functional; details: SNB-75, 48 h, read-out: Activity
SF-539 = assay: Cytotoxicity against human SF539 cells assessed as cell growth at 10 uM after 48 hrs by SRB assay relative to control; type: functional; details: SF-539, 48 h, read-out: Activity
SNB-19 = assay: Cytotoxicity against human SNB19 cells assessed as cell growth at 10 uM after 48 hrs by SRB assay relative to control; type: functional; details: SNB-19, 48 h, read-out: Activity
SF-295 = assay: Cytotoxicity against human SF295 cells assessed as cell growth at 10 uM after 48 hrs by SRB assay relative to control; type: functional; details: SF-295, 48 h, read-out: Activity
KM12 = assay: Cytotoxicity against human KM12 cells assessed as cell growth at 10 uM after 48 hrs by SRB assay relative to control; type: functional; details: KM12, 48 h, read-out: Activity
HT-29 = assay: Cytotoxicity against human HT-29 cells assessed as cell growth at 10 uM after 48 hrs by SRB assay relative to control; type: functional; details: HT-29, 48 h, read-out: Activity
[7] = Cytotoxicity against human HCT15 cells assessed as cell growth at 10 uM after 48 hrs by SRB assay relative to control; type: functional; details: HCT-15, 48 h, read-out: Activity
HCC 2998 = assay: Cytotoxicity against human HCC2998 cells assessed as cell growth at 10 uM after 48 hrs by SRB assay relative to control; type: functional; details: HCC 2998, 48 h, read-out: Activity
[8] = Cytotoxicity against human HCT116 cells assessed as cell growth at 10 uM after 48 hrs by SRB assay relative to control; type: functional; details: HCT-116, 48 h, read-out: Activity
NCI-H322M = assay: Cytotoxicity against human NCI-H322M cells assessed as cell growth at 10 uM after 48 hrs by SRB assay relative to control; type: functional; details: read-out: Activity
NCI-H460 = assay: Cytotoxicity against human NCI-H460 cells assessed as cell growth at 10 uM after 48 hrs by SRB assay relative to control; type: functional; details: NCI-H460, 48 h, read-out: Activity
NCI-H23 = assay: Cytotoxicity against human NCI-H23 cells assessed as cell growth at 10 uM after 48 hrs by SRB assay relative to control; type: functional; details: NCI-H23, 48 h, read-out: Activity
HOP-62 = assay: Cytotoxicity against human HOP62 cells assessed as cell growth at 10 uM after 48 hrs by SRB assay relative to control; type: functional; details: HOP-62, 48 h, read-out: Activity
A549 = assay: Cytotoxicity against human A549 cells assessed as cell growth at 10 uM after 48 hrs by SRB assay relative to control; type: functional; details: A549, 48 h, read-out: Activity
[9] = Cytotoxicity against human EKVX cells assessed as cell growth at 10 uM after 48 hrs by SRB assay relative to control; type: functional; details: read-out: Activity
RPMI-8226 = assay: Cytotoxicity against human RPMI8226 cells assessed as cell growth at 10 uM after 48 hrs by SRB assay relative to control; type: functional; details: RPMI-8226, 48 h, read-out: Activity
K562 = assay: Cytotoxicity against human K562 cells assessed as cell growth at 10 uM after 48 hrs by SRB assay relative to control; type: functional; details: K562, 48 h, read-out: Activity
CCRF-CEM = assay: Cytotoxicity against human CCRF-CEM cells assessed as cell growth at 10 uM after 48 hrs by SRB assay relative to control; type: functional; details: read-out: Activity
MDA-MB-231 [10] = assay: Antimigratory activity against human MDA-MB-231 cells after 24 hrs by wound-healing assay; type: functional, cell-based; details: MDA-MB-231, 24 h

Row | SMILES | growth at 10 µM (T47D) [%] | growth at 10 µM (MDA-MB-231 [1]) [%] | growth at 10 µM [2] [%] | growth at 10 µM (MCF7) [%] | growth at 10 µM (TK-10) [%] | growth at 10 µM (SN12C) [%] | growth at 10 µM (ACHN) [%] | growth at 10 µM (786-0) [%] | pIC50 (MDA-MB-231 [3]) | growth at 10 µM [4] [%] | growth at 10 µM (IGROV-1) [%] | growth at 10 µM [5] [%] | growth at 10 µM [6] [%] | growth at 10 µM (SK-MEL-28) [%] | growth at 10 µM (MDA-MB-435) [%] | growth at 10 µM (M14) [%] | growth at 10 µM (LOX IMVI) [%] | growth at 10 µM (SNB-75) [%] | growth at 10 µM (SF-539) [%] | growth at 10 µM (SNB-19) [%] | further results
1 | CC(C)=CCC[C@H](C)c1ccc(C)c(CO)c1O | 72.2 | 109 | 89.1 | 102 | 103 | 91.3 | 110 | 80.1 | < 4.70 | 91.1 | 107 | 90.4 | 91.9 | 134 | 108 | 103 | 103 | 83.4 | 98.4 | 101 | growth at 10 µM (SF-295): 103%; growth at 10 µM (KM12): 92.1%; growth at 10 µM (HT-29): 103%; growth at 10 µM [7]: 109%; growth at 10 µM (HCC 2998): 102%; growth at 10 µM [8]: 91.3%; growth at 10 µM (NCI-H322M): 109%; growth at 10 µM (NCI-H460): 108%; growth at 10 µM (NCI-H23): 92.9%; growth at 10 µM (HOP-62): 99.8%; growth at 10 µM (A549): 78.5%; growth at 10 µM [9]: 103%; growth at 10 µM (RPMI-8226): 88.8%; growth at 10 µM (K562): 101%; growth at 10 µM (CCRF-CEM): 94.2%; pIC50 (MDA-MB-231 [10]): 4.91
2 | CC(C)=CCC[C@H](C)c1ccc(C)c(CNCCCCCO)c1O | 99.1 | 96.5 | 79.5 | 79.4 | 92.2 | 98 | 97.7 | 87.3 | < 4.70 | 84.2 | 91.1 | 94.2 | 93.2 | 112 | 95 | 94.3 | 83.1 | 77.2 | 92.1 | 94.6 | growth at 10 µM (SF-295): 108%; growth at 10 µM (KM12): 97.3%; growth at 10 µM (HT-29): 55%; growth at 10 µM [7]: 86.1%; growth at 10 µM (HCC 2998): 73%; growth at 10 µM [8]: 78%; growth at 10 µM (NCI-H322M): 104%; growth at 10 µM (NCI-H460): 94.5%; growth at 10 µM (NCI-H23): 92.5%; growth at 10 µM (HOP-62): 88.4%; growth at 10 µM (A549): 91.5%; growth at 10 µM [9]: 90.5%; growth at 10 µM (RPMI-8226): 85.3%; growth at 10 µM (K562): 60.2%; growth at 10 µM (CCRF-CEM): 96.5%; pIC50 (MDA-MB-231 [10]): < 4.70
